According to patent US12070513B2, “PSMA-binding agents and uses thereof” (The Johns Hopkins University, priority 2008, dated 2024):
Where “and” joins values, the source holds several entries; their conditions need not be identical. Equal values may be shown once. Entries after “also recorded” stand apart in the source; their conditions may differ.

How the values were obtained:
[1] = test system: PC-3 PIP (PSMA+) and PC-3 flu (PSMA−) xenograft-bearing SCID mice; assay: Ex vivo biodistribution in tumor-bearing mice
[2] = test system: PC-3 PIP and PC-3 flu xenografts in SCID mouse; assay: PET-CT imaging of [18F]6; assay type: in vivo; conditions: 94-120 min p.i., PC-3 PIP and PC-3 flu tumors
Description: Compound [^18F]6. In vivo PET-CT: A SCID mouse bearing subcutaneous PC-3 PIP and PC-3 flu xenografts was anesthetized using 3% isoflurane in oxygen for induction and 1.5% isoflurane in oxygen at 0.8 L/min flow for maintenance and positioned prone on the gantry of a GE eXplore Vista small animal PET scanner (GE Healthcare, Milwaukee, Wis.). The mouse was injected intravenously with 7.4 MBq (200 μCi) of [^18F]6 followed by image acquisition using the following protocol: The images were acquired as a pseudodynamic scan, i.e., a sequence of successive whole-body images acquired in three bed positions for a total of 90 min. The dwell time at each position was 5 minutes, such that a given bed position (or mouse organ) was revisited every 15 min. An energy window of 250-700 keV was used. Images were reconstructed using the FORE/2D-OSEM method (2 iterations, 16 subsets) and included corrections for radioactive decay, scanner dead time and scattered radiation.

[3] = molecular target: PSMA, lysates of LNCaP cell extracts (Homo sapiens (Human), UniProt Q04609); assay: fluorescence-based PSMA inhibition assay (Amplex Red glutamic acid kit); assay type: biochemical; conditions: 4 μM NAAG
Chain of PSMA, lysates of LNCaP cell extracts (Q04609 whole entry): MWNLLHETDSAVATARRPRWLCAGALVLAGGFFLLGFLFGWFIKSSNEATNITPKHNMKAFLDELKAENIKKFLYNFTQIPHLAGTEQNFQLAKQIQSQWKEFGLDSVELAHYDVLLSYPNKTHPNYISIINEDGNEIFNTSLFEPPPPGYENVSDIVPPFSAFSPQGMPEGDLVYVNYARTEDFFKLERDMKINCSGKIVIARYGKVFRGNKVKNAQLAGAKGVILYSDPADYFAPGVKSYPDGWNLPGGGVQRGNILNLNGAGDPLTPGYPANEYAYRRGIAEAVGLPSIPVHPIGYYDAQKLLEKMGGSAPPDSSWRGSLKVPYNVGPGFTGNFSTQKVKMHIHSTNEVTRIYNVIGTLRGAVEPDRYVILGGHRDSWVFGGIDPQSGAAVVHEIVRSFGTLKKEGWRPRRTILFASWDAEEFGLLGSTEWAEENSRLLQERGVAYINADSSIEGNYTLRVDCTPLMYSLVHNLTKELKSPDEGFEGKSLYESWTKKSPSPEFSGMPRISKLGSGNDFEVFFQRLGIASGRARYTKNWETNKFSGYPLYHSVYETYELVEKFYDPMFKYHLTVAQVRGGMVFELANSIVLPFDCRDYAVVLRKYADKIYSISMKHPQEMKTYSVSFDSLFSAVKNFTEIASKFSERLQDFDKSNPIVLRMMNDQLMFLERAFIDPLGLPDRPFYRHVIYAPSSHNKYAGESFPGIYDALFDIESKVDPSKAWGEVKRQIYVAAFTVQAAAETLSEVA

[4] = molecular target: NAALADase (PSMA) prepared from LNCaP cell lysates (Homo sapiens (Human), UniProt Q04609); assay: NAALADase (radiometric) assay, NAAG hydrolysis; assay type: biochemical; conditions: [3H]NAAG 30 nM
[5] = test system: PC-3 PIP and PC-3 flu xenografts in SCID mouse; assay: SPECT-CT imaging of [125I]3 in PCa tumor models; assay type: in vivo; conditions: 4 h p.i., PC-3 PIP and PC-3 flu tumors
Description: At 4 and 6 h p.i. the mouse was anesthetized with isoflurane and maintained under 1% isoflurane in oxygen. The mouse was positioned on the X-SPECT (Gamma Medica, Northridge, Calif.) gantry and was scanned using two low energy, high-resolution pinhole collimators (Gamma Medica) rotating through 360° in 6° increments for 45 seconds per increment. All gamma images were reconstructed using Lunagem software (Gamma Medica, Northridge, Calif.) Immediately following SPECT acquisition, the mice were then scanned by CT (X-SPECT) over a 4.6 cm field-of-view using a 600 μA, 50 kV beam. […] Data were reconstructed using the Ordered Subsets-Expectation Maximization (OS-EM) algorithm.

[6] = Stability of radiolabeled product after synthesis; assay type: physicochemical; conditions: after radiosynthesis and HPLC
Description: Synthesis of 2-[3-(1-carboxy-5-{4-[N′-(4-[^18F]fluoro-benzylidene)-hydrazino]-benzoylamino}-pentyl)-ureido]-pentanedioic acid (^18F]12). 4-[^18F]fluorobenzaldehyde was synthesized by using a known procedure (Nuclear Medicine and Biology 33 (2006) 677-683). To the crude DMSO solution of 4-[^18F]fluorobenzaldehyde was added 1-2 mg of compound 14, 0.2 mL of 50 mM KH2PO4. The vial was closed and heated at 90° C. for […]. The reaction mixture was then purified by HPLC (Ecomosphere C18 10μ, 250×10 mm, H2O/CH3CN/TFA [70/30/0.1], 4 mL/min). The radiochemical yield (decay corrected and based on starting [^18F] fluoride, n=2) was 30-55%. […] The specific activity of final compound was not determined.

SMILES: O=C(O)CCC(NC(=O)NC(CCCCNC(=O)c1ccc([18F])cc1)C(=O)O)C(=O)O (stereo not drawn) [[^18F]6, 2-{3-[1-carboxy-5-(4-[^18F]fluoro-benzoylamino)-pentyl]-ureido}-pentanedioic acid]
- PC-3 PIP tumor uptake ([1]; 30 min p.i.): 8.58±3.09 % ID/g and 8.6 ± 3.1 % ID/g
- PC-3 flu tumor uptake ([1]; 30 min p.i.): 0.8 ± 0.3 % ID/g
- PIP tumor:bladder ratio ([1]; 30 min p.i.): (1)
- PIP tumor:blood ratio ([1]; 30 min p.i.): (3)
- PIP tumor:heart ratio ([1]; 30 min p.i.): (11)
- PIP tumor:kidney ratio ([1]; 30 min p.i.): (0.1)
- PIP tumor:large intestine ratio ([1]; 30 min p.i.): (7)
- PIP tumor:liver ratio ([1]; 30 min p.i.): (1)
- PIP tumor:lung ratio ([1]; 30 min p.i.): (5)
- PIP tumor:muscle ratio ([1]; 30 min p.i.): (4)
- PIP tumor:pancreas ratio ([1]; 30 min p.i.): (11)
- PIP tumor:small intestine ratio ([1]; 30 min p.i.): (5)
- PIP tumor:spleen ratio ([1]; 30 min p.i.): (0.7)
- PIP tumor:stomach ratio ([1]; 30 min p.i.): (11)
- PIP:flu ratio ([1]; 30 min p.i.): 11
- bladder uptake ([1]; 30 min p.i.): 6.8 ± 3.5 % ID/g
- blood uptake ([1]; 30 min p.i.): 2.5 ± 1.7 % ID/g
- heart uptake ([1]; 30 min p.i.): 0.8 ± 0.1 % ID/g
- kidney uptake ([1]; 30 min p.i.): 72.05±3.19 % ID/g and 72 ± 3 % ID/g
- large intestine uptake ([1]; 30 min p.i.): 1.2 ± 0.8 % ID/g
- liver uptake ([1]; 30 min p.i.): 8.7 ± 1.8 % ID/g
- lung uptake ([1]; 30 min p.i.): 1.7 ± 0.3 % ID/g
- muscle uptake ([1]; 30 min p.i.): 2.4 ± 3.1 % ID/g
- pancreas uptake ([1]; 30 min p.i.): 0.8 ± 0.1 % ID/g
- small intestine uptake ([1]; 30 min p.i.): 1.7 ± 0.7 % ID/g
- spleen uptake ([1]; 30 min p.i.): 12.67±0.36 % ID/g and 12.7 ± 0.4 % ID/g
- stomach uptake ([1]; 30 min p.i.): 0.8 ± 0.1 % ID/g
- PC-3 PIP tumor uptake ([1]; 60 min p.i.): 6.4 ± 0.9 % ID/g
- PC-3 flu tumor uptake ([1]; 60 min p.i.): 0.3 ± 0.05 % ID/g
- PIP tumor:bladder ratio ([1]; 60 min p.i.): (0.4)
- PIP tumor:blood ratio ([1]; 60 min p.i.): (9)
- PIP tumor:heart ratio ([1]; 60 min p.i.): (35)
- PIP tumor:kidney ratio ([1]; 60 min p.i.): (0.1)
- PIP tumor:large intestine ratio ([1]; 60 min p.i.): (13)
- PIP tumor:liver ratio ([1]; 60 min p.i.): (1)
- PIP tumor:lung ratio ([1]; 60 min p.i.): (13)
- PIP tumor:muscle ratio ([1]; 60 min p.i.): (13)
- PIP tumor:pancreas ratio ([1]; 60 min p.i.): (21)
- PIP tumor:small intestine ratio ([1]; 60 min p.i.): (11)
- PIP tumor:spleen ratio ([1]; 60 min p.i.): (1)
- PIP tumor:stomach ratio ([1]; 60 min p.i.): (26)
- PIP:flu ratio ([1]; 60 min p.i.): 21
- bladder uptake ([1]; 60 min p.i.): 17 ± 21 % ID/g
- blood uptake ([1]; 60 min p.i.): 0.7 ± 0.5 % ID/g
- heart uptake ([1]; 60 min p.i.): 0.2 ± 0.02 % ID/g
- kidney uptake ([1]; 60 min p.i.): 48 ± 5 % ID/g
- large intestine uptake ([1]; 60 min p.i.): 0.5 ± 0.1 % ID/g
- liver uptake ([1]; 60 min p.i.): 5.8 ± 0.6 % ID/g
- lung uptake ([1]; 60 min p.i.): 0.5 ± 0.1 % ID/g
- muscle uptake ([1]; 60 min p.i.): 0.5 ± 0.7 % ID/g
- pancreas uptake ([1]; 60 min p.i.): 0.3 ± 0.1 % ID/g
- small intestine uptake ([1]; 60 min p.i.): 0.6 ± 0.2 % ID/g
- spleen uptake ([1]; 60 min p.i.): 7.2 ± 1.6 % ID/g
- stomach uptake ([1]; 60 min p.i.): 0.25 ± 0.1 % ID/g
- PC-3 PIP tumor uptake ([1]; 2 h p.i.): 3.7 ± 1.2 % ID/g
- PC-3 flu tumor uptake ([1]; 2 h p.i.): 0.25 ± 0.1 % ID/g
- PIP tumor:bladder ratio ([1]; 2 h p.i.): (0.3)
- PIP tumor:blood ratio ([1]; 2 h p.i.): (9)
- PIP tumor:heart ratio ([1]; 2 h p.i.): (25)
- PIP tumor:kidney ratio ([1]; 2 h p.i.): (0.1)
- PIP tumor:large intestine ratio ([1]; 2 h p.i.): (19)
- PIP tumor:liver ratio ([1]; 2 h p.i.): (0.3)
- PIP tumor:lung ratio ([1]; 2 h p.i.): (4)
- PIP tumor:muscle ratio ([1]; 2 h p.i.): (19)
- PIP tumor:pancreas ratio ([1]; 2 h p.i.): (25)
- PIP tumor:small intestine ratio ([1]; 2 h p.i.): (12)
- PIP tumor:spleen ratio ([1]; 2 h p.i.): (1)
- PIP tumor:stomach ratio ([1]; 2 h p.i.): (13)
- PIP:flu ratio ([1]; 2 h p.i.): 15
- bladder uptake ([1]; 2 h p.i.): 11 ± 8 % ID/g
- blood uptake ([1]; 2 h p.i.): 0.4 ± 0.2 % ID/g
- heart uptake ([1]; 2 h p.i.): 0.15 ± 0.05 % ID/g
- kidney uptake ([1]; 2 h p.i.): 29 ± 12 % ID/g
- large intestine uptake ([1]; 2 h p.i.): 0.2 ± 0.1 % ID/g
- liver uptake ([1]; 2 h p.i.): 11.7 ± 7.0 % ID/g
- lung uptake ([1]; 2 h p.i.): 1.0 ± 0.9 % ID/g
- muscle uptake ([1]; 2 h p.i.): 0.2 ± 0.1 % ID/g
- pancreas uptake ([1]; 2 h p.i.): 0.15 ± 0.03 % ID/g
- small intestine uptake ([1]; 2 h p.i.): 0.3 ± 0.2 % ID/g
- spleen uptake ([1]; 2 h p.i.): 4.4 ± 1.2 % ID/g
- stomach uptake ([1]; 2 h p.i.): 0.3 ± 0.1 % ID/g
- PC-3 PIP tumor uptake ([1]; 5 h p.i.): 3.5 ± 2.3 % ID/g
- PC-3 flu tumor uptake ([1]; 5 h p.i.): 0.1 ± 0.1 % ID/g
- PIP tumor:bladder ratio ([1]; 5 h p.i.): (0.7)
- PIP tumor:blood ratio ([1]; 5 h p.i.): (117)
- PIP tumor:heart ratio ([1]; 5 h p.i.): (117)
- PIP tumor:kidney ratio ([1]; 5 h p.i.): (0.3)
- PIP tumor:large intestine ratio ([1]; 5 h p.i.): (6)
- PIP tumor:liver ratio ([1]; 5 h p.i.): (3.5)
- PIP tumor:lung ratio ([1]; 5 h p.i.): (35)
- PIP tumor:muscle ratio ([1]; 5 h p.i.): (35)
- PIP tumor:pancreas ratio ([1]; 5 h p.i.): (70)
- PIP tumor:small intestine ratio ([1]; 5 h p.i.): (35)
- PIP tumor:spleen ratio ([1]; 5 h p.i.): (3.5)
- PIP tumor:stomach ratio ([1]; 5 h p.i.): (88)
- PIP:flu ratio ([1]; 5 h p.i.): 35
- bladder uptake ([1]; 5 h p.i.): 5.2 ± 8.9 % ID/g
- blood uptake ([1]; 5 h p.i.): 0.03 ± 0.00 % ID/g
- heart uptake ([1]; 5 h p.i.): 0.03 ± 0.01 % ID/g
- kidney uptake ([1]; 5 h p.i.): 14 ± 9 % ID/g
- large intestine uptake ([1]; 5 h p.i.): 0.6 ± 0.6 % ID/g
- liver uptake ([1]; 5 h p.i.): 1.0 ± 0.6 % ID/g
- lung uptake ([1]; 5 h p.i.): 0.1 ± 0.1 % ID/g
- muscle uptake ([1]; 5 h p.i.): 0.1 ± 0.1 % ID/g
- pancreas uptake ([1]; 5 h p.i.): 0.05 ± 0.03 % ID/g
- small intestine uptake ([1]; 5 h p.i.): 0.1 ± 0.04 % ID/g
- spleen uptake ([1]; 5 h p.i.): 1.0 ± 0.6 % ID/g
- stomach uptake ([1]; 5 h p.i.): 0.04 ± 0.02 % ID/g
- uptake pattern in PET-CT [2]: easily observed within PIP tumor, none within flu tumor, high renal uptake and a modest degree of liver uptake; also recorded: uptake within the PSMA+ PIP tumor only

SMILES: O=C(O)CCC(NC(=O)NC(CCCCNC(=O)c1ccc(F)cc1)C(=O)O)C(=O)O (stereo not drawn) [Compound 6, 2-{3-[1-Carboxy-5-(4-fluoro-benzoylamino)-pentyl]-ureido}-pentanedioic acid]
- Ki [3]: 0.194 nM
- PIP:flu ratio ([1]; 5 h p.i.): 31
- Ki [4]: 0.256 nM

SMILES: O=C(O)CCC(NC(=O)NC(CCCCNC(=O)c1ccc([125I])cc1)C(=O)O)C(=O)O (stereo not drawn) [[^125I]3, 2-{3-[1-carboxy-5-(4-[^125I]iodo-benzoylamino)-pentyl]-ureido}-pentanedioic acid]
- radiopharmaceutical uptake in SPECT-CT image [5]: intense uptake in the PC-3 PIP and absence of uptake in the PC-3 flu tumor; also recorded: uptake within the PSMA+ PIP tumor only

SMILES: O=C(O)CCC(NC(=O)NC(CCCCNC(=O)c1ccc(NN=Cc2ccc(F)cc2)cc1)C(=O)O)C(=O)O (stereo not drawn) [Compound 12, 2-[3-(1-carboxy-5-{4-[N′-(4-fluoro-benzylidene)-hydrazino]-benzoylamino}-pentyl)-ureido]-pentanedioic acid]
- stability of compound after preparation [6]: decomposed soon after been made
